Turning to `CCN(C(C)=O)c1cn(-c2cccnc2)nc1Cl`, the melting point – broadly, the temperature, or range, at which the solid turns liquid – was 87 to 91 °C.

(Values after patent US10100033B2 (dated 2018).)
